# ChEMBL document CHEMBL1138939, “Privileged structure based ligands for melanocortin receptors--4,4-disubstituted piperidine derivatives” (Bioorg Med Chem Lett, 2006)
# pKi: −log10 of the molar value.
# Molecular target: Melanocortin receptor 4 (Homo sapiens, UniProt P32245)
# Assay: Displacement of [125I]NDP-alpha-MSH from human MC4 receptor transfected in HEK293 cells
# Format: cell-based
# Sequence of Melanocortin receptor 4 (P32245 whole entry): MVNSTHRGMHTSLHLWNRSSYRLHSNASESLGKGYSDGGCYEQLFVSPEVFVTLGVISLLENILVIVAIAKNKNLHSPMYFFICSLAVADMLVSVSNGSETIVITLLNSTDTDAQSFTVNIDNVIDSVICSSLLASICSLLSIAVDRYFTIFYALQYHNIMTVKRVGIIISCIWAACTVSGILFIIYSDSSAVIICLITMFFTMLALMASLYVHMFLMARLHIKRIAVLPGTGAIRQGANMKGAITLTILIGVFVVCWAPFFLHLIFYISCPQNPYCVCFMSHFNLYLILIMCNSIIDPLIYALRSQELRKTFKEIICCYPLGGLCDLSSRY
row,Compound,pKi
1,CC(C)CC1(N2CCN(C(=O)[C@@H](Cc3ccc(Cl)cc3)NC(=O)CC3NCc4ccccc43)CC2)CCN(C)CC1 (some centres not stated),7.90
2,CC(C)CC1(N2CCN(C(=O)[C@@H](Cc3ccc(Cl)cc3)NC(=O)CC3NCc4ccccc43)CC2)CCOCC1 (some centres not stated),7.50
3,CC(C)C1(N2CCN(C(=O)[C@@H](Cc3ccc(Cl)cc3)NC(=O)CC3NCc4ccccc43)CC2)CCN(C)CC1 (some centres not stated),7.38
4,CCN1CCC(CC(C)C)(N2CCN(C(=O)[C@@H](Cc3ccc(Cl)cc3)NC(=O)CC3NCc4ccccc43)CC2)CC1 (some centres not stated),7.81
5,CCC1(N2CCN(C(=O)[C@@H](Cc3ccc(Cl)cc3)NC(=O)CC3NCc4ccccc43)CC2)CCN(C)CC1 (some centres not stated),6.43
6,CN1CCC(c2ccccc2)(N2CCN(C(=O)[C@@H](Cc3ccc(Cl)cc3)NC(=O)CC3NCc4ccccc43)CC2)CC1 (some centres not stated),6.67
7,CC(C)CC1(N2CCN(C(=O)[C@@H](Cc3ccc(Cl)cc3)NC(=O)CC3NCc4ccccc43)CC2)CCCCC1 (some centres not stated),7.33
8,CN1CCC(Cc2ccccc2)(N2CCN(C(=O)[C@@H](Cc3ccc(Cl)cc3)NC(=O)CC3NCc4ccccc43)CC2)CC1 (some centres not stated),7.36
9,CCCCCCC1(N2CCN(C(=O)[C@@H](Cc3ccc(Cl)cc3)NC(=O)CC3NCc4ccccc43)CC2)CCN(C)CC1 (some centres not stated),7.16
10,CC(=O)N1CCC(CC(C)C)(N2CCN(C(=O)[C@@H](Cc3ccc(Cl)cc3)NC(=O)CC3NCc4ccccc43)CC2)CC1 (some centres not stated),7.43

# Further compounds by rising pKi, results first:
row,pKi,Compound
1,7.00,CC(C)CC1(N2CCN(C(=O)[C@@H](Cc3ccc(Cl)cc3)NC(=O)CC3NCc4ccccc43)CC2)CCN(C(=O)C(C)C)CC1 (some centres not stated)
2,7.12,CC(C)CC1(N2CCN(C(=O)[C@@H](Cc3ccc(Cl)cc3)NC(=O)CC3NCc4ccccc43)CC2)CCS(=O)(=O)CC1 (some centres not stated)
3,7.16,CC(C)CC1(N2CCN(C(=O)[C@@H](Cc3ccc(Cl)cc3)NC(=O)CC3NCc4ccccc43)CC2)CCSCC1 (some centres not stated)
4,7.56,CC(C)CC1(N2CCN(C(=O)[C@@H](Cc3ccc(Cl)cc3)NC(=O)CC3NCc4ccccc43)CC2)CCN(S(C)(=O)=O)CC1 (some centres not stated)
5,7.89,CC(C)CC1(N2CCN(C(=O)[C@@H](Cc3ccc(Cl)cc3)NC(=O)CC3NCc4ccccc43)CC2)CCN(C(C)C)CC1 (some centres not stated)
6,8.17,CN1CCC(CC2CCCCC2)(N2CCN(C(=O)[C@@H](Cc3ccc(Cl)cc3)NC(=O)CC3NCc4ccccc43)CC2)CC1 (some centres not stated)
7,8.30,CCN(CC)CC(CC1CCCCC1)N1CCN(C(=O)[C@@H](Cc2ccc(Cl)cc2)NC(=O)CC2NCc3ccccc32)CC1 (some centres not stated)
